Patent US20260103479A1, “PRODRUGS OF OPICAPONE” (BIAL- PORTELA & CA, S.A., priority 2022, published 2026)
≈ marks a conversion by molar mass, not a printed value. Read-outs that look alike come from different tables or passages of the source.

Columns and labels:
[1] = Stability in buffer at pH 1.2, 4.5 and 6.8; format: physicochemical; details: 2500 ng/mL, 37° C.; for stability in buffer at pH 1.2 / stability in buffer at pH 4.5 / stability in buffer at pH 6.8: 4 hours
Description: The stability of 2500 ng/mL of compounds 1 and 4 was assessed at different pH values of 1.2, 4.5 and 6.8 over 4 hours at 37° C. • Buffer solutions were prepared as follows: • Buffer solution pH 1.2: • To prepare 1L: • 3.73 g potassium chloride • 7 mL HCl37% • Add purified water • Check/Adjust pH to 1.20±0.05 (using solutions: HCl 1M and/or NaOH 1M) • Buffer solution pH 4.5 • To prepare 1L: • 2.99 g sodium acetate trihydrate • 14 mL acetic acid 2M • Add purified water • Check/Adjust pH to 4.50±0.05 (using solutions: acetic acid 2M and/or NaOH 1M) • Buffer solution pH 6.8 • To prepare 1L: • 6.81 g potassium dihydrogen phosphate • 22 mL NaOH 1M • Add purified water • Check/Adjust pH to 6.80±0.05 (using solutions: HCl 1M and/or NaOH 1M)

[2] = Long-term stability studies in the solid state; format: physicochemical
erythrocyte S-COMT = target: T1, erythrocyte S-COMT (Rattus norvegicus, UniProt P22734); experiment: Subcutaneous pharmacodynamics: erythrocyte S-COMT activity (adrenaline to metanephrine); format: in vivo, male Wistar rats; details: sc, s.c. 3 mg/kg
T1 construct: from tissue; host or cells: erythrocytes of male Wistar rats (haemolysate supernatant, 20 000 x g)
T1 sequence (P22734 1-221 isoform P22734-2): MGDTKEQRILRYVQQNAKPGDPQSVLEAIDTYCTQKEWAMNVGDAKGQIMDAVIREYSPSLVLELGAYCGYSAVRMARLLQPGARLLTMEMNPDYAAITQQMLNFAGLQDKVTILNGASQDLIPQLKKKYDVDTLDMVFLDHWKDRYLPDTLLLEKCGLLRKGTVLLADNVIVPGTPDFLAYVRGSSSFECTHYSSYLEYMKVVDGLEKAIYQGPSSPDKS
Description: The pharmacodynamic properties of compounds 1 and 4 compared to oral administered micronized crystalline opicapone were assessed by subcutaneous injection to 4 male Wistar rats (3 mg/kg; DMSO:20% HPBCD (1:9)) then measurement of erythrocyte S-COMT activity over time.
During the studies, blood was collected at different time points, from tail vein, spun at 1500×g in a refrigerated centrifuge (4° C.) for 15 min, and the plasma and erythrocytes obtained were stored at −80° C. until further analysis. The plasma samples collected were analysed for compound 1, compound 4 and opicapone exposure, as previously described
Erythrocyte S-COMT activity was evaluated by the ability to methylate adrenaline to metanephrine. Aliquots of erythrocytes were haemolyzed by addition of 4 volumes of ice-cold ultrapure water and homogenization in a bead mill homogenizer, using glass beads, followed by 10 minutes incubation on wet ice. After centrifugation (20 000×g, 20 minutes, 4° C.), the supernatant containing S-COMT was quantified for total protein using Bradford assay. Supernatants were diluted with water to 4 mg total protein per ml. 100 μL of these diluted supernatants were then pre-incubated in a 96-well plate for 20 min with 80 μL of phosphate buffer (10 mM, pH 7.8); thereafter, the reaction mixture was incubated for 10 min with adrenaline (10 mM; 20 μL) in the presence of a saturating concentration of S-adenosyl-L-methionine, the methyl donor (500 μM). The incubation medium also contained pargyline (100 μM), MgCl2, (100 μM) and EGTA (1 mM). The pre-incubation and incubation were carried out at 37° C., under conditions of light protection with continuous shaking and without oxygenation. At the end of the incubation period the plate was transferred to ice and the reaction was stopped by the addition of 15 μL of glacial acetic acid. 60 μL of each sample were then transferred to a new 96-well containing 400 μL of 0.1% formic acid, followed by plate centrifugation (2000×g, 5 minutes 4° C.). The supernatants were used for the quantification of metanephrine by LC-MS/MS.

L-DOPA metabolism = experiment: Subcutaneous pharmacodynamics: impact on L-DOPA and 3-OMD plasma levels; format: in vivo, male Wistar rats; details: s.c. 3 mg/kg with 12 mg/kg L-DOPA plus 3 mg/kg benserazide vs without compound; rat
Description: As proof-of-concept, the effects of compound 4 on L-DOPA metabolism was evaluated in 4 male Wistar rats. Animals were subcutaneously injected with a single formulation (in DMSO:PEG 400:30% SBEBCD (1:2:2)) containing 12 mg/kg of L-DOPA plus 3 mg/kg of benserazide with or without 3 mg/kg of compound 4. Plasma samples were collected as described above and analyzed for levels of L-DOPA and its metabolite 3-O-methyldopa (3-OMD).

[3] = Aqueous solubility in distilled (pure) water at room temperature; details: thermodynamic from solid
physchem = details: water, thermodynamic from solid
[4] = 2 h after dosing, read-out: maximal inhibition of COMT activity in erythrocytes
[5] = at least until 8 h post-dosing, read-out: inhibition of COMT maintained

Row | long-term stability in the solid state [2] | solubility [3] [µg/mL] | SMILES | stability in buffer at pH 1.2 [1] | stability in buffer at pH 4.5 [1] | stability in buffer at pH 6.8 [1] | inhibition at 3 mg/kg (erythrocyte S-COMT; [4]) [%] | inhibition at 3 mg/kg (erythrocyte S-COMT; [5]) [%] | increase in the AUClast of circulating L-DOPA (L-DOPA metabolism) [fold] | levels of L-DOPA metabolite 3-OMD (L-DOPA metabolism) | solubility in buffer at pH 1.2 [1] | solubility (physchem) [µg/mL]
1 | particularly stable | > 500 | Cc1c(Cl)c(C)[n+]([O-])c(Cl)c1-c1noc(-c2cc(OCOP(=O)(O)O)c(O)c([N+](=O)[O-])c2)n1 [Compound 4, 2,5-dichloro-3-(5-(4-hydroxy-3-nitro-5-((phosphonooxy)methoxy)phenyl)-1,2,4-oxadiazol-3-yl)-4,6-dimethylpyridine 1-oxide] | stable | stable | stable | 94 | > 80 | 1.7 | decrease | – | –
2 | – | – | Cc1c(Cl)c(C)[n+]([O-])c(Cl)c1-c1noc(-c2cc(OP(=O)(O)O)c(O)c([N+](=O)[O-])c2)n1 [Compound 1, 2,5-dichloro-3-(5-(4-hydroxy-3-nitro-5-(phosphonooxy)phenyl)-1,2,4-oxadiazol-3-yl)-4,6-dimethylpyridine 1-oxide] | stable | stable | stable | 96 | > 80 | – | – | not immediately soluble | 6000 (≈ 12.2 mM)
